Data: patent US10781229B2, “Tris- or neopentyl glycol-based amphiphiles and uses thereof” (Industry-University Cooperation Foundation Hanyang …, priority 2015, dated 2020)
Entries after “also recorded” stand apart in the source; their conditions may differ.

Legend:
[1] = molecular target: T1, uric acid-xanthine/H+ symporter (UapA) (Emericella nidulans, UniProt Q07307, G411V); assay: UapA structural stability by CPM assay; parameters: species or system Aspergillus nidulans; conditions: 40° C.
T1 construct: GFP; made in house; host or cells: Saccharomyces cerevisiae FGY217
Experimental: Experiments to measure the structural stability of a uric acid-xanthine/H+ symporter (UapA) due to TDTs or NDTs in an aqueous solution were conducted. The structural stability of UapA was measured using CPM assay, and the concentrations of TDTs, NDTs, and DDM concentration were CMC+0.04% by weight.
In particular, UapA protein is a uric acid-xanthine/H+ symporter in Aspergillus nidulans). The stability of the protein was measured using N-[4-(7-Diethylamino-4-methyl-3-coumarinyl)phenyl]maleimide (CPM), as a sulfhydryl-specific fluorophore, by means of a fluorescence spectrophotometer. A free sulfhydryl group of a cysteine residue is present within the center of the protein but may be present near a solvent due to unfolding of the protein. CPM becomes fluorescent by reaction with free thiol and, accordingly, functions as a sensor of unfolding. […] The reaction was monitored at 40° C. for 120 minutes by means of a microplate spectrofluorometer. So as to calculate a ratio of folded proteins relative to remaining proteins after being maintained at 40° C. for […], relative maximum fluorescence was used. […]

[2] = tested on: leucine transporter (LeuT); assay: LeuT stability by [3H]-Leu scintillation proximity assay (SPA); assay type: biochemical, Aquifex aeolicus
Experimental: Experiments to measure the structural stability of a leucine transporter (LeuT) protein by TDTs or NDTs were conducted. LeuT protein activity was measured by scintillation proximity assay (SPA) utilizing [^3H]-Leu as a ligand. The concentration of TDTs, NDTs, or DDM was (a) CMC+0.04% by weight, or (b) CMC+[…].
In particular, the LeuT stability measurement experiments were conducted according to the following methods. Depending upon the results of UapA and MelB, only TDT-C11, TDT-C12, NDT-C10, NDT-C11 and NDT-C12 among the amphipathic molecules according to the present invention were selectively used. In accordance with a method disclosed in a paper published by G. Deckert, et al. (Nature 1998, 392, 353-358), a wild-type leucine transporter (LeuT) was purified from Aquifex aeolicus. LeuT is expressed in E. coli C41 (DE3) transformed with pET16b encoding a C-terminal 8×His-tagged transporter (the expression plasmid was provided by Dr E. Gouaux, Vollum Institute, Portland, Oreg., USA). In summary, the […] protein was isolated and solubilized with 1.0% by weight of DDM, followed by binding the protein to a Ni^2+-NTA resin (Life Technologies, Denmark) and eluting the same with 20 mM Tris-HCl (pH 8.0), 1 mM NaCl, 199 mM KCl, 0.05% DDM, and 300 mM imidazole. Next, about 1.5 mg/ml of a protein stock was 10-fold diluted with a buffer in which DDM and imidazole are absent, but TDTs, NDTs, or DDM (control) is supplemented such that a final concentration becomes CMC+0.04% by weight or CMC+0.2% by weight. Protein samples were stored at room temperature and centrifuged at a predetermined time. To evaluate protein activity, [^3H]-Leu coupling was measured using scintillation proximity assay (SPA) (M. Quick et al., Proc. Natl, Acad. Sci. U.S.A. 2007, 104, 3603-3608). 5 μL of each protein sample dissolved in a buffer that contained 200 mM NaCl and each test compound was analyzed. SPA reaction was carried out in the presence of 20 nM [^3H]-Leu and copper chelate (His-Tag) YSi beads (both purchased from PerkinElmer, Denmark). [^3H]-Leu coupling was measured by means of a MicroBeta liquid scintillation counter (PerkinElmer).

T1 sequence (Q07307 12-574 G411V): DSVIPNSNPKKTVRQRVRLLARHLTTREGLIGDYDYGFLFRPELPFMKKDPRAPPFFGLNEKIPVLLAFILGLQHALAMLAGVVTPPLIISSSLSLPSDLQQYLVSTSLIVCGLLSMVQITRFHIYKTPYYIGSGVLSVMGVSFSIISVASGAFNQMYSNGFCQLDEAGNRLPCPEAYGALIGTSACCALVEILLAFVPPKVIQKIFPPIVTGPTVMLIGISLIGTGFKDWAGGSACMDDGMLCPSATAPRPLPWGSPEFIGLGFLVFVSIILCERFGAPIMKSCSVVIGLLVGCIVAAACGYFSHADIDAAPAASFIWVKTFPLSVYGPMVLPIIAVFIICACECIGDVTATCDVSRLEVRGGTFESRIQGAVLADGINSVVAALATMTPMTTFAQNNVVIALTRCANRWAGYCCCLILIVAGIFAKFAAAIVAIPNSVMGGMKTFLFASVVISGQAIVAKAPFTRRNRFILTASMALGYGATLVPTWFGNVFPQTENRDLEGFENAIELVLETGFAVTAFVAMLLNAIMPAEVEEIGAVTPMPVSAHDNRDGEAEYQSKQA

CCCCCCCCCCCC(CCCCCCCCCCC)COCC(CO[C@@H]1OC(CO)[C@@H](O)C(O)C1O)(CO[C@@H]1OC(CO)[C@@H](O)C(O)C1O)CO[C@@H]1OC(CO)[C@@H](O)C(O)C1O (stereo partly shown) [NDT-C11] was tested, and the “UapA protein structural stability (amount of folded protein)” value ([1]; CMC+0.04% by weight) was “most excellent”, the “UapA protein structural stability (amount of folded protein)” value ([1]; CMC+0.2% by weight) was “most excellent; also recorded: superior to those of MNG-3” and the “LeuT protein stabilization ability ([3H]-Leu binding)” value ([2]; CMC+0.04% by weight, room temperature) was “most excellent”. For the same compound, the “LeuT protein stabilization, overall comparison” value ([2]; conclusion) was “superior to DDM and similar to MNG-3”.
